Data on 6 compounds can be found in patent US20100179158A1, “INHIBITORS OF CYCLIC AMP PHOSPHODIESTERASES” (priority 2007, published 2010).

One experiment addresses T1, PDE4B3 (Mus musculus, UniProt Q8VBU5).
T1 construct: targets used in the assays are full-length proteins (as opposed to simply the catalytic domain); expressed in transfected cells; host or cells: Schizosaccharomyces pombe, gene integrated at the cgs2 locus
T1 sequence (Q8VBU5 1-721): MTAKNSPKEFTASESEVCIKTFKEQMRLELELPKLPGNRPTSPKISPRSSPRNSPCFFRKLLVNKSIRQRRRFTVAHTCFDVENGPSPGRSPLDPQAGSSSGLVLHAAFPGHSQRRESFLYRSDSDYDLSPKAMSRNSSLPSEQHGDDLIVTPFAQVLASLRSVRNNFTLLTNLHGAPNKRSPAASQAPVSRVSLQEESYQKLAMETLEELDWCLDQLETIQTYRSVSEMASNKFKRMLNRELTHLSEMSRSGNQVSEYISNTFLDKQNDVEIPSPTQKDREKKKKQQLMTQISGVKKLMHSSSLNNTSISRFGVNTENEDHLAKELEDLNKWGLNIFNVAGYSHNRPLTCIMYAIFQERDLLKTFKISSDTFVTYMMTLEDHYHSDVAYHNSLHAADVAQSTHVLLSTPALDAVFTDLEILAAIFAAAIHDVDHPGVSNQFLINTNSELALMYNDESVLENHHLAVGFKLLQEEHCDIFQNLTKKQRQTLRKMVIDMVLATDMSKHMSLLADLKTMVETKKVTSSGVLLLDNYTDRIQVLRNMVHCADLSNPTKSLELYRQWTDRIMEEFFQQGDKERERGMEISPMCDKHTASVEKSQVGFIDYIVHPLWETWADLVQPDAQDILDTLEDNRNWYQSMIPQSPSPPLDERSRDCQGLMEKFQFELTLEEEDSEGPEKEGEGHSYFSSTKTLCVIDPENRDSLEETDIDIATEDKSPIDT
The experiment is described as follows: cAMP assay in yeast strain expressing PDE4B3. Type of experiment: cell-based, murine. A general note: cAMP levels reflect the balance of adenylyl cyclase and phosphodiesterase activity.

Another experiment addresses T2, PDE4D2 (Homo sapiens, UniProt Q08499).
T2 construct: targets used in the assays are full-length proteins (as opposed to simply the catalytic domain); expressed in transfected cells; host or cells: Schizosaccharomyces pombe
The experiment in a line: cAMP assay in yeast strain expressing PDE4D2. Type of experiment: cell-based.

Experiment [1] addresses T3, PDE4A1 (Mus musculus, UniProt O89084).
T3 construct: targets used in the assays are full-length proteins (as opposed to simply the catalytic domain); expressed in transfected cells; host or cells: Schizosaccharomyces pombe, gene integrated at the cgs2 locus
T3 sequence (O89084 1-610 isoform O89084-2): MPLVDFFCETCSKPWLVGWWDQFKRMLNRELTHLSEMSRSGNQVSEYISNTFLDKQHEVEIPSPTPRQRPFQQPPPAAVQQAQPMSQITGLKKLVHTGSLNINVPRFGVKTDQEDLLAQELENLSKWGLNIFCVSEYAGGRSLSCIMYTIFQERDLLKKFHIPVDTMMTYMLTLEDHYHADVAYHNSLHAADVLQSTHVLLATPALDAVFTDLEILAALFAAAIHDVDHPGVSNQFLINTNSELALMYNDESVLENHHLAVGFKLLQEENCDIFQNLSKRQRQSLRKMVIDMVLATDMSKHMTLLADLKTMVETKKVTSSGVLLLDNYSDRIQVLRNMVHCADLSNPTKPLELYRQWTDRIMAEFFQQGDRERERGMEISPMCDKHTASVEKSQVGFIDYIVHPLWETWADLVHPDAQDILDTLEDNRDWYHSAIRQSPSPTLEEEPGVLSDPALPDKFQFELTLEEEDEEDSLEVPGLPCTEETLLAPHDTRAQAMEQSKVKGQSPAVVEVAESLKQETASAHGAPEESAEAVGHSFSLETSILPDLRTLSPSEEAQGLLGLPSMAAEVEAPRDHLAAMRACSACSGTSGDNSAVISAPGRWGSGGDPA
The experiment in a line: cAMP assay in yeast strain expressing PDE4A1. Type of experiment: cell-based, murine.

Experiment [2] deals with PDE4A, PDE4B, PDE4D, PDE7A. The experiment is described as follows: Overall PDE inhibitor profile from the yeast assays (table footnotes, summary). Type of experiment: cell-based. The gist of the method:
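Fission yeast strains expressing full-length PDEs with an fbp1-ura4 reporter, pregrown in EMM with 0–2.5 mM cAMP (or 0.5 or 1.0 mM cGMP), then grown 48 h at 30° C in 5FOA medium with 100 nl of compound pinned per well (10 mM stocks). Growth read as OD600; composite Z scores calculated.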

Experiment [3] has as its target T3, PDE4A1. The experiment is described as follows: IC50 on PDE4A1. To be noted: read-out: IC50, PDE 4A1. Type of experiment: biochemical, murine.
Experiment [4] deals with T4, PDE4D3 (Homo sapiens, UniProt Q08499).
T4 construct: targets used in the assays are full-length proteins (as opposed to simply the catalytic domain); expressed in transfected cells; host or cells: Schizosaccharomyces pombe, gene integrated at the cgs2 locus
The experiment in a line: IC50 on PDE4D3. To be noted: read-out: IC50, PDE 4D3. Type of experiment: biochemical.

Experiment [5] has as its target T4, PDE4D3. The experiment is described as follows: Fission yeast 5FOA growth assay, strain expressing PDE4D3. Type of experiment: cell-based. The note with it: 2 uM compound, 5FOA growth screen. As for the experimental part:
Cells were pregrown in EMM medium [MP Biomedicals (Solon, OH), 3% glucose, filter-sterilized to avoid carmelization, which would introduce variability into the optical density of the medium] containing from 0 mM to 2.5 mM cAMP (or either 0.5 mM or 1.0 mM cGMP). This was to repress expression of the fbp1-ura4 reporter prior to exposure of cells to 5FOA medium. Cells were grown at 30° C. to exponential phase (approximately 10^7 cells/ml). Cells were collected by centrifugation and resuspended in 5FOA medium, and 25 μl were transferred to 384-well microtiter dishes (untreated, with flat clear bottoms) that had been pre-filled with 25 μl 5FOA medium and pre-pinned with 100 nl of compounds (stock solutions were generally 10 mM). Starting cell concentrations ranged from 0.5×10^5 to 4×10^5 cells/ml depending on the screening strain. […] Other positive control dishes contained 5 mM cAMP in the 5FOA medium for PDEs that lack appropriate control compounds. Cultures were grown for 48 hours at 30° C., sealed in an airtight container with moist paper towels to prevent evaporation. Optical densities (OD600) of cultures were measured using a microplate reader. Bioinformatic analysis of the results to determine composite Z scores was performed as previously described (1, 3).

Experiment [6] has as its target T4, PDE4D3. The experiment is described as follows: cAMP assay in yeast strain expressing PDE4D3. Type of experiment: cell-based.

Structures are written as SMILES. pIC50: −log10 of the molar value.

T4 sequence (Q08499 1-673 isoform Q08499-2): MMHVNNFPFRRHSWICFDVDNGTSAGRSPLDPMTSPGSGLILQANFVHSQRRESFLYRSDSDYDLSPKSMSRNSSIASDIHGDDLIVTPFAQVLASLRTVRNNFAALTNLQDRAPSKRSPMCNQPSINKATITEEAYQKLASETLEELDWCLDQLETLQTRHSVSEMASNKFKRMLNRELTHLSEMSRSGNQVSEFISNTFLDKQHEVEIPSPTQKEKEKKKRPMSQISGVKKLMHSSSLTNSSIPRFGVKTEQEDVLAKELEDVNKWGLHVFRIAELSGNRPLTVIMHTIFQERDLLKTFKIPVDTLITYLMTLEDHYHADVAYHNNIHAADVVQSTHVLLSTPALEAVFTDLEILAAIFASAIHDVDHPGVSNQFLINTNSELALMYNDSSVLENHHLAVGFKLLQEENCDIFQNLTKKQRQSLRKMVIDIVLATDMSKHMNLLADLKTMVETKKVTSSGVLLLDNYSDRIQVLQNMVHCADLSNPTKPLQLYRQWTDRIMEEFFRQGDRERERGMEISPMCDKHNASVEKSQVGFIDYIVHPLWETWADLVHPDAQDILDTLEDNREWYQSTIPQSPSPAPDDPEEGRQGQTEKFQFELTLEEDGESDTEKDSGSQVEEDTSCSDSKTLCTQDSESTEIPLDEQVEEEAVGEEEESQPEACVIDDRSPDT
T2 sequence (Q08499 303-809): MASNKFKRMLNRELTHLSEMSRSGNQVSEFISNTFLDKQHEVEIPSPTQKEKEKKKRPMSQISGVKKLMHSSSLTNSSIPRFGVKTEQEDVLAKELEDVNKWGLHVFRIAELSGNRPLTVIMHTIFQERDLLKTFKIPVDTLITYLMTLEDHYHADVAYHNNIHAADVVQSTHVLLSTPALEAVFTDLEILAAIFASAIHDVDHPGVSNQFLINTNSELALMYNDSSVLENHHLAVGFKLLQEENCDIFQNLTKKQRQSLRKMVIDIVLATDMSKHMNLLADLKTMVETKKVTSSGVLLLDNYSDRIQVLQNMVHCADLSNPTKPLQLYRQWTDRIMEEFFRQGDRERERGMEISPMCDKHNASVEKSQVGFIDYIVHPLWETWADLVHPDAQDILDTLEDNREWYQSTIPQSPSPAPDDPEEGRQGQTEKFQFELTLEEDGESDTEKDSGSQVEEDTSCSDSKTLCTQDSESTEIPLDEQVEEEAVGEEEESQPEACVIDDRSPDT

One may read the pIC50 as the IC50 on a negative log10 scale, so that one unit is a factor of ten. For the compound `COC(=O)C1=C(C)N(c2ccccc2Cl)C(=O)/C1=C\c1cccs1` [Compound 27], on PDE4B3, the “cAMP Response (% rolipram), PDE 4B3” value was found to be 71.00 % rolipram. The “cAMP Response (% rolipram), PDE 4D2” value on PDE4D2 is reported as “ND ND ND 11.00 ND % rolipram”. Also, the “cAMP Response (% rolipram), PDE 4A1” value at PDE4A1 [1] is on record as 78.00 % rolipram. Moreover, in experiment [2], the “PDE inhibitor profile in words (table footnote / summary)” value was “(3) Strong PDE4A, 4B inhibitor”. Moreover, the pIC50 at PDE4A1 [3] and on PDE4D3 [4] was 7.00 throughout. Besides, the “2 Assay (2 uM), PDE 4D3” value on PDE4D3 [5] worked out at 0.00. At PDE4D3 [6], the “cAMP Response (% rolipram), PDE 4D3” value is on record as 8.00 % rolipram.
Turning to `COC(=O)C1=C(C)N(c2ccc(C(C)C)cc2)C(=O)/C1=C\c1cccs1` [2008, O19], the “PDE inhibitor profile in words (table footnote / summary)” value in experiment [2] was “(1) No activity under conditions used”.
Turning to `COC(=O)C1=C(C)N(c2ccccc2F)C(=O)/C1=C\c1cccc(OC)c1O` [2008, C21], the “PDE inhibitor profile in words (table footnote / summary)” value in experiment [2] is listed as “(2) Strong PDE4A, 4B inhibitor”.
Consider `COC(=O)C1=C(C)N(C2CCCCC2)C(=O)/C1=C\c1cccs1` [Compound 22], for which, on PDE4B3, the “cAMP Response (% rolipram), PDE 4B3” value is 51.00 % rolipram. The “cAMP Response (% rolipram), PDE 4D2” value on PDE4D2 is given as “ND ND ND 34.00 ND % rolipram”. Also, the “cAMP Response (% rolipram), PDE 4A1” value at PDE4A1 [1] was 54.00 % rolipram. Also, the “PDE inhibitor profile in words (table footnote / summary)” value in experiment [2] is on record as “(4) Strong PDE4A, 4B, 7 inhibitor; Weak PDE4D inhibitor”. Further, the “2 Assay (2 uM), PDE 4D3” value on PDE4D3 [5] is given as 42.32. For the same compound, the “cAMP Response (% rolipram), PDE 4D3” value at PDE4D3 [6] was determined as 12.00 % rolipram.
On to `COC(=O)C1=C(C)N(c2ccccc2)/C(=C/c2cccs2)C1=O` [2008, K19], for which, in experiment [2], the “PDE inhibitor profile in words (table footnote / summary)” value is “(1) No activity under conditions used”.
Turning to `Cc1ccc2c(c1)c1nc3ccccc3nc1n2C(C)C` [Compound 41], the pIC50 at PDE4A1 [3] was 6.19; at PDE4D3 [4], 6.70.
